Measurements taken from PubChem BioAssay (NCI).
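Where inhibition never reached the appropriate level, the endpoint shown equals the highest concentration tested. Otherwise, values were interpolated linearly from a five-concentration, 48-hour dose response in 96-well plates. TGI denotes the concentration required for complete inhibition of growth.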

Experiments:
Assay in all cases: inhibition of tumour cell growth, NCI panel, 48 h
T-47D breast = test system: T-47D breast
LOX IMVI melanoma = test system: LOX IMVI melanoma
K-562 leukemia = test system: K-562 leukemia
UO-31 renal = test system: UO-31 renal
NCI/ADR-RES ovarian = test system: NCI/ADR-RES ovarian
HOP-92 NSCLC = test system: HOP-92 NSCLC
786-0 renal = test system: 786-0 renal
MOLT-4 leukemia = test system: MOLT-4 leukemia
SK-MEL-5 melanoma = test system: SK-MEL-5 melanoma
SW-620 colon = test system: SW-620 colon
TK-10 renal = test system: TK-10 renal
A549 NSCLC = test system: A549 NSCLC
HCC-2998 colon = test system: HCC-2998 colon
OVCAR-8 ovarian = test system: OVCAR-8 ovarian
HCT-15 colon = test system: HCT-15 colon
SN12C renal = test system: SN12C renal
SNB-19 CNS = test system: SNB-19 CNS
OVCAR-4 ovarian = test system: OVCAR-4 ovarian
MDA-MB-435 = test system: MDA-MB-435
NCI-H522 lung = test system: NCI-H522 lung
SNB-75 CNS = test system: SNB-75 CNS
CAKI-1 renal = test system: CAKI-1 renal
RXF 393 renal = test system: RXF 393 renal
COLO 205 colon = test system: COLO 205 colon
SF-295 CNS = test system: SF-295 CNS
MCF7 breast = test system: MCF7 breast
ACHN renal = test system: ACHN renal
SF-539 CNS = test system: SF-539 CNS
M14 melanoma = test system: M14 melanoma
DU-145 prostate = test system: DU-145 prostate
OVCAR-5 ovarian = test system: OVCAR-5 ovarian
UACC-257 melanoma = test system: UACC-257 melanoma
IGROV1 ovarian = test system: IGROV1 ovarian
HT29 colon = test system: HT29 colon
MDA-MB-231 breast = test system: MDA-MB-231 breast
CCRF-CEM leukemia = test system: CCRF-CEM leukemia
PC-3 prostate = test system: PC-3 prostate
SK-MEL-2 melanoma = test system: SK-MEL-2 melanoma
KM12 colon = test system: KM12 colon
EKVX NSCLC = test system: EKVX NSCLC
UACC-62 melanoma = test system: UACC-62 melanoma
OVCAR-3 ovarian = test system: OVCAR-3 ovarian
MDA-N = test system: MDA-N
BT-549 breast = test system: BT-549 breast
SK-MEL-28 melanoma = test system: SK-MEL-28 melanoma
NCI-H23 lung = test system: NCI-H23 lung
U251 CNS = test system: U251 CNS
HS 578T breast = test system: HS 578T breast
A498 renal = test system: A498 renal
HL-60(TB) leukemia = test system: HL-60(TB) leukemia
HCT-116 colon = test system: HCT-116 colon
NCI-H460 lung = test system: NCI-H460 lung
HOP-62 NSCLC = test system: HOP-62 NSCLC
SR leukemia = test system: SR leukemia
SF-268 CNS = test system: SF-268 CNS
SK-OV-3 ovarian = test system: SK-OV-3 ovarian
MALME-3M melanoma = test system: MALME-3M melanoma
RPMI-8226 leukemia = test system: RPMI-8226 leukemia
NCI-H226 lung = test system: NCI-H226 lung

CN(C(=O)C12C3(C(=O)O)C4C5(C(=O)O)C3C1(C(=O)O)C5C42C(=O)O)C(C)(C)C (stereo unspecified)
TGI (T-47D breast): > 100 µM | TGI (LOX IMVI melanoma): > 100 µM | TGI (K-562 leukemia): > 100 µM | TGI (UO-31 renal): > 100 µM | TGI (NCI/ADR-RES ovarian): > 100 µM | TGI (HOP-92 NSCLC): > 100 µM | TGI (786-0 renal): > 100 µM | TGI (MOLT-4 leukemia): > 100 µM | TGI (SK-MEL-5 melanoma): > 100 µM | TGI (SW-620 colon): > 100 µM | TGI (TK-10 renal): > 100 µM | TGI (A549 NSCLC): > 100 µM | TGI (HCC-2998 colon): > 100 µM | TGI (OVCAR-8 ovarian): > 100 µM | TGI (HCT-15 colon): > 100 µM | TGI (SN12C renal): > 100 µM | TGI (SNB-19 CNS): > 100 µM | TGI (OVCAR-4 ovarian): > 100 µM | TGI (MDA-MB-435): > 100 µM | TGI (NCI-H522 lung): > 100 µM | TGI (SNB-75 CNS): > 100 µM | TGI (CAKI-1 renal): > 100 µM | TGI (RXF 393 renal): > 100 µM | TGI (COLO 205 colon): > 100 µM | TGI (SF-295 CNS): > 100 µM | TGI (MCF7 breast): > 100 µM | TGI (ACHN renal): > 100 µM | TGI (SF-539 CNS): > 100 µM | TGI (M14 melanoma): > 100 µM | TGI (DU-145 prostate): > 100 µM | TGI (OVCAR-5 ovarian): > 100 µM | TGI (UACC-257 melanoma): > 100 µM | TGI (IGROV1 ovarian): > 100 µM | TGI (HT29 colon): > 100 µM | TGI (MDA-MB-231 breast): > 100 µM | TGI (CCRF-CEM leukemia): > 100 µM | TGI (PC-3 prostate): > 100 µM | TGI (SK-MEL-2 melanoma): > 100 µM | TGI (KM12 colon): > 100 µM | TGI (EKVX NSCLC): > 100 µM | TGI (UACC-62 melanoma): > 100 µM | TGI (OVCAR-3 ovarian): > 100 µM | TGI (MDA-N): > 100 µM | TGI (BT-549 breast): > 100 µM | TGI (SK-MEL-28 melanoma): > 100 µM | TGI (NCI-H23 lung): > 100 µM | TGI (U251 CNS): > 100 µM | TGI (HS 578T breast): > 100 µM | TGI (A498 renal): > 100 µM | TGI (HL-60(TB) leukemia): > 100 µM | TGI (HCT-116 colon): > 100 µM | TGI (NCI-H460 lung): > 100 µM | TGI (HOP-62 NSCLC): > 100 µM | TGI (SR leukemia): > 100 µM | TGI (SF-268 CNS): > 100 µM

Cc1ccc([N+](=O)[O-])cc1S(=O)(=O)Nc1ccc(C2=NN(C(=O)c3ccccc3)C(c3ccccc3O)C2)cc1 (stereo unspecified)
TGI (T-47D breast): 30.1 µM | TGI (LOX IMVI melanoma): 45.6 µM | TGI (K-562 leukemia): > 100 µM | TGI (UO-31 renal): 76.6 µM | TGI (SK-OV-3 ovarian): 84.5 µM | TGI (NCI/ADR-RES ovarian): > 100 µM | TGI (HOP-92 NSCLC): 26.4 µM | TGI (786-0 renal): 27.9 µM | TGI (MOLT-4 leukemia): 51.5 µM | TGI (SK-MEL-5 melanoma): 34.7 µM | TGI (SW-620 colon): > 100 µM | TGI (TK-10 renal): 28.5 µM | TGI (A549 NSCLC): 74.4 µM | TGI (OVCAR-8 ovarian): 57.7 µM | TGI (HCT-15 colon): 33.5 µM | TGI (SN12C renal): 33 µM | TGI (SNB-19 CNS): > 100 µM | TGI (OVCAR-4 ovarian): 42.8 µM | TGI (MDA-MB-435): > 100 µM | TGI (NCI-H522 lung): 28.6 µM | TGI (SNB-75 CNS): 41.4 µM | TGI (CAKI-1 renal): 91.9 µM | TGI (RXF 393 renal): 31.9 µM | TGI (COLO 205 colon): 31.9 µM | TGI (SF-295 CNS): > 100 µM | TGI (MALME-3M melanoma): 31.5 µM | TGI (RPMI-8226 leukemia): > 100 µM | TGI (MCF7 breast): 26.7 µM | TGI (ACHN renal): 47.8 µM | TGI (SF-539 CNS): 38.4 µM | TGI (M14 melanoma): 48.6 µM | TGI (DU-145 prostate): 41.5 µM | TGI (OVCAR-5 ovarian): 60.6 µM | TGI (UACC-257 melanoma): 51.8 µM | TGI (IGROV1 ovarian): 25.4 µM | TGI (HT29 colon): 62.5 µM | TGI (MDA-MB-231 breast): 37.7 µM | TGI (CCRF-CEM leukemia): > 100 µM | TGI (PC-3 prostate): 29 µM | TGI (SK-MEL-2 melanoma): 46.4 µM | TGI (KM12 colon): > 100 µM | TGI (EKVX NSCLC): 31 µM | TGI (NCI-H226 lung): 58.6 µM | TGI (OVCAR-3 ovarian): 56.8 µM | TGI (MDA-N): 88.1 µM | TGI (BT-549 breast): 30.7 µM | TGI (SK-MEL-28 melanoma): > 100 µM | TGI (NCI-H23 lung): 35.5 µM | TGI (U251 CNS): 80.1 µM | TGI (HS 578T breast): > 100 µM | TGI (A498 renal): 60.6 µM | TGI (HL-60(TB) leukemia): 69.4 µM | TGI (HCT-116 colon): 28.4 µM | TGI (HOP-62 NSCLC): 85.7 µM | TGI (SR leukemia): > 100 µM | TGI (SF-268 CNS): 45.9 µM
